Assays:
[1] = target: β2-AR-Gs sensor; experiment: [3H]-DHA saturation binding (KD); parameters: species or system human; settings: β2-AR-Gs sensor membranes
Description: (§1) Radio-ligand assays followed the previously published protocol. […]; PerkinElmer) for 90 min at room temperature in Tris-Buffered-Saline (TBS) pH 7.4. Samples were transferred to GF/C membranes pre-treated with 0.3% PEI solution in TBS, washed extensively with cold TBS, and dried over night at room temperature. […] Each experiment was done at least twice with different membrane preparations, with three separate samples prepared per condition, per experiment.

[2] = target: β2-AR control (–) sensor; experiment: [3H]-DHA saturation binding (KD); parameters: species or system human; settings: control sensor membranes
Description: as §1

[3] = tested on: α2-AR-Gi fusion; settings: 100 μM, 1 μM forskolin; α2-AR-Gi compared to α2-AR alone (–)
[4] = tested on: α2-AR-Gi fusion; settings: 100 μM / 1 mM (Fig. 3 legend), live cells
Description: Change in FRET (ΔFRET) was calculated as FRETligand – FRETbuffer.

Kd [1] [nM] | Kd [2] [nM] | SMILES | loss in cAMP signaling (inhibition of forskolin induced cAMP) [3] | ΔFRET [4]
~0.2 | ~0.2 | CCCc1ccccc1OCC(O)CNC(C)C (stereo not shown) [[^3H]-DHA, [^3H]-dihydroalprenolol] |  | 
 |  | CNC[C@H](O)c1ccc(O)c(O)c1 [epinephrine] | greater loss in cAMP signaling | 0.01 ± 0.002

Source: PMC5552854, “ER/K linked GPCR-G protein fusions systematically modulate second messenger response in cells” (Scientific Reports, 2017)
